We go through five molecules from EP0624315B1, “Diaryl(pyridinio and isoquinolinio) boron fungicidal agents” (AMERICAN CYANAMID COMPANY, priority 1993, dated 1994).

Assay [1] has as its system Erysiphe graminis f. sp. tritici. The experiment in a line: In vivo fungicidal evaluation, Wheat Powdery Mildew. Note: ranges in brackets are in %. The note with it: 200 ppm, host plants sprayed, dried, then inoculated.
The subject of assay [2] is Pseudocercosporella herpotrichoides (Psdche). Description: In vitro fungicidal evaluation, mycelial growth inhibition in nutrient broth. Note: ranges in brackets are in %. Type of assay: cell-based. The note with it: 25 ppm, 3-4 days at 21°C, rated visually. As for the experimental part:
(§1) Test compounds are dissolved or suspended in acetone and dispersed into cell well plates containing a suspension of ground fungal mycelia in a nutrient broth. Assay plates are incubated for 3-4 days at 21°C. Growth inhibition is measured visually and is rated using the following scale:
(§2) Untreated controls, solvent blanks and reference standards are included in each test.
(§3) Assay fungi include the plant pathogens, Pythium ultimum (Pythul); Rhizoctonia solani (Rhizso); Fusarium oxysporum f. sp. cucumerinum (Fusoxc); and Pseudocercosporella herpotrichoides (Psdche).
(§4) When more than one test is run, the data are averaged. The compouds evaluated are reported by compound number given in Example 5.

Assay [3] relates to Fusarium oxysporum f. sp. cucumerinum (Fusoxc). The assay is described as above. The format is cell-based. The note with it: 25 ppm, 3-4 days at 21°C, rated visually. As for the experimental part: as §1, §2, §3, §4
Assay [4] concerns Rhizoctonia solani (Rhizso). Described as above. The format is cell-based. Conditions: 25 ppm, 3-4 days at 21°C, rated visually. The protocol: as §1, §2, §3, §4; note: ranges in brackets are in %
In another assay the test system is Pythium ultimum (Pythul). Described as above. The note with it: 25 ppm, 3-4 days at 21°C, rated visually. The format is cell-based. The protocol: as §1, §2, §3, §4; note: ranges in brackets are in %
The subject of a further assay is Plasmopara viticola. Description: In vivo fungicidal evaluation, Grape Downy Mildew. Note: ranges in brackets are in %. Conditions: 200 ppm, host plants sprayed, dried, then inoculated.
A further assay deals with Botrytis cinerea. Description: In vivo fungicidal evaluation, Pepper Botrytis. Note: ranges in brackets are in %. The note with it: 200 ppm, host plants sprayed, dried, then inoculated.
Another assay deals with Pyricularia oryzae. The format is in vivo. The note with it: 200 ppm, host plants sprayed, dried, then inoculated.
Another assay relates to Alternaria solani. The experiment in a line: In vivo fungicidal evaluation, Tomato Early Blight. Note: ranges in brackets are in %. The note with it: 200 ppm, host plants sprayed, dried, then inoculated.
The subject of another assay is Cercospora beticola. The experiment in a line: In vivo fungicidal evaluation, Sugar Beet Cercospora. Note: ranges in brackets are in %. Conditions: 200 ppm, host plants sprayed, dried, then inoculated.
In assay [5] the test system is Puccinia recondita f. sp. tritici. Description: In vivo fungicidal evaluation, Wheat Leaf Rust. Note: ranges in brackets are in %. Conditions: 200 ppm, host plants sprayed, dried, then inoculated.
The test system of a further assay is Venturia inaequalis. Description: In vivo fungicidal evaluation, Apple Scab. Note: ranges in brackets are in %. Conditions: 200 ppm, host plants sprayed, dried, then inoculated.
Throughout, for FUSOXC growth inhibition rating: ranges in brackets are in %.

Turning to “Hydroxy(3-butylpyridinio)diphenylboron [Compound 7]”, in [1], the “WPM (Wheat Powdery Mildew) disease control rating” value (shortened to “WPM”) is 5 (60 - 74). Also, in [2], the “PSDCHE growth inhibition rating” value is reported as 0 (0). Besides, the “FUSOXC growth inhibition rating” value in assay [3] was 9 (100). The “RHIZSO growth inhibition rating” value in assay [4] is listed as 9 (100). In the assay on Pythium ultimum (Pythul), the “PHTHUL growth inhibition rating” value is 9 (100). Moreover, the “GDM (Grape Downy Mildew) disease control rating” value (shortened to “GDM”) in the assay on Plasmopara viticola is listed as 0 (0). In addition, in the assay on Botrytis cinerea, the “PB (Pepper Botrytis) disease control rating” value (shortened to “PB”) is 0 (0). In addition, in the assay on Pyricularia oryzae, the “RB (Rice Blast) disease control rating” value is on record as 6 (75 - 89). Further, the “TEB (Tomato Early Blight) disease control rating” value (from here on “TEB”) with Alternaria solani is 0 (0). In the assay on Cercospora beticola, the “SBC (Sugar Beet Cercospora) disease control rating” value (from here on “SBC”) was 0 (0). Moreover, the “WLR (Wheat Leaf Rust) disease control rating” value in [5] is given as 5 (60 - 74). For the same molecule, the “AS (Apple Scab) disease control rating” value in the assay on Venturia inaequalis is recorded as 6 (75 - 89).

For `C[B-](c1ccccc1)(c1ccccc1)[n+]1ccc(C(C)(C)C)cc1` [Compound 20, (4-Tert-butyl-pyridinio)methyldiphenylboron], the “WPM” value in [1] is given as 7 (90 - 95). Besides, in assay [2], the “PSDCHE growth inhibition rating” value was 7 (90 - 99). Moreover, the “FUSOXC growth inhibition rating” value in assay [3] was 7 (90 - 99). In addition, the “RHIZSO growth inhibition rating” value in assay [4] is given as 7 (90 - 99). The “PHTHUL growth inhibition rating” value with Pythium ultimum (Pythul) is 7 (90 - 99). In the assay with Plasmopara viticola, the “GDM” value is listed as 9 (100). Besides, the “PB” value in the assay on Botrytis cinerea is 9 (100). In addition, the “RB (Rice Blast) disease control rating” value in the assay on Pyricularia oryzae was 8 (96 - 99). The “TEB” value with Alternaria solani is 8 (96 - 99). The “SBC” value with Cercospora beticola is given as 9 (100). Besides, the “AS (Apple Scab) disease control rating” value in the assay on Venturia inaequalis is 9 (100).

Regarding `C[B-](c1ccccc1)(c1ccccc1)[n+]1ccc(-c2ccccc2)cc1` [Compound 17, (4-Phenylpyridinio)methyldiphenylboron], in [1], the “WPM” value is given as 8 (96 - 99). Also, the “PSDCHE growth inhibition rating” value in [2] was 7 (90 - 99). For the same molecule, the “FUSOXC growth inhibition rating” value in [3] was 7 (90 - 99). The “RHIZSO growth inhibition rating” value in assay [4] was 5 (60 - 89). For the same molecule, in the assay on Pythium ultimum (Pythul), the “PHTHUL growth inhibition rating” value was 0 (0). For the same molecule, in the assay on Plasmopara viticola, the “GDM” value is reported as 9 (100). In addition, the “PB” value in the assay with Botrytis cinerea is reported as 9 (100). Besides, the “RB (Rice Blast) disease control rating” value in the assay on Pyricularia oryzae was 8 (96 - 99). In addition, the “TEB” value with Alternaria solani is on record as 9 (100). For the same molecule, the “SBC” value with Cercospora beticola was 8 (96 - 99). In the assay with Venturia inaequalis, the “AS (Apple Scab) disease control rating” value is recorded as 9 (100).

Turning to “(4-Cyanopyridinio)methyldiphenylboron [Compound 16]”, in assay [1], the “WPM” value is 0 (0). In addition, the “PSDCHE growth inhibition rating” value in assay [2] is 9 (100). For the same molecule, the “FUSOXC growth inhibition rating” value in assay [3] is given as 7 (90 - 99). Moreover, the “RHIZSO growth inhibition rating” value in [4] is on record as 7 (90 - 99). Also, the “PHTHUL growth inhibition rating” value with Pythium ultimum (Pythul) is given as 7 (90 - 99). For the same molecule, the “GDM” value in the assay on Plasmopara viticola was 9 (100). Besides, the “PB” value with Botrytis cinerea is listed as 8 (96 - 99). The “RB (Rice Blast) disease control rating” value with Pyricularia oryzae is 9 (100). In the assay on Alternaria solani, the “TEB” value is listed as 8 (96 - 99). The “SBC” value with Cercospora beticola is reported as 8 (96 - 99). Further, the “AS (Apple Scab) disease control rating” value in the assay with Venturia inaequalis is listed as 9 (100).

Regarding `CC(=O)c1cc[n+]([B-](C)(c2ccccc2)c2ccccc2)cc1` [Compound 19, (4-Acetylpyridinio)methyldiphenylboron], the “WPM” value in [1] is 8 (96 - 99). In assay [2], the “PSDCHE growth inhibition rating” value was 9 (100). The “FUSOXC growth inhibition rating” value in [3] is given as 7 (90 - 99). Besides, the “RHIZSO growth inhibition rating” value in [4] is on record as 7 (90 - 99). In the assay with Pythium ultimum (Pythul), the “PHTHUL growth inhibition rating” value was 7 (90 - 99). Also, the “GDM” value in the assay with Plasmopara viticola is listed as 9 (100). Besides, the “PB” value with Botrytis cinerea is on record as 9 (100). The “RB (Rice Blast) disease control rating” value with Pyricularia oryzae was 8 (96 - 99). The “TEB” value in the assay with Alternaria solani is 8 (96 - 99). Also, in the assay on Cercospora beticola, the “SBC” value is 9 (100). The “AS (Apple Scab) disease control rating” value in the assay with Venturia inaequalis is listed as 9 (100).
